Experimental data reported in patent US9987256B2, “CFTR corrector for the treatment of genetic disorders affecting striated muscle” (UNIVERSITA' DEGLI STUDI DI PADOVA, priority 2012, dated 2018).
Positions count from the first letter of the chain named. Where a SMILES comes first, the peptide text is derived from it. The star is where a group is joined. Cbz = O=C(OCc1ccccc1)*

Columns and labels:
D307H CASQ2 mutant = conditions: CASQ2 D307H/D307H knock in mouse, systemic administration; cited from earlier work
[1] = target: T1, R98H mutant of alpha-sarcoglycan (Homo sapiens, UniProt Q16586, R98H); assay: Western blot rescue of R98H mutant of alpha-sarcoglycan in HEK293 cell model; format: cell-based; conditions: FIG. 1; HEK293, 24 hours; C 5 μM, B 10 μM, E 10 μM, F 10 μM, A 2 μM, D 10 μM; relative to R98H cells treated with DMSO
T1 construct: expressed in transfected cells; host or cells: HEK293
T1 sequence (Q16586 24-387 R98H): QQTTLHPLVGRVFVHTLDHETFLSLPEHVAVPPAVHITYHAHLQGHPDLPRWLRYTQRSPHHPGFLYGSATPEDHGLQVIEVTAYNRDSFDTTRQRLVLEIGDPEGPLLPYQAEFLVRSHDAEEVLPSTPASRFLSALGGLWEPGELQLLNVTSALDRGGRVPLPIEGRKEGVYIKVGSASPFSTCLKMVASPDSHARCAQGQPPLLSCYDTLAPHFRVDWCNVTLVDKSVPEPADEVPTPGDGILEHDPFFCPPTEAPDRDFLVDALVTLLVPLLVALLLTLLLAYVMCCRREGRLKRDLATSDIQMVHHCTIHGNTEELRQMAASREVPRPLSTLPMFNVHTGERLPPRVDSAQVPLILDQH
Description: HEK293 cells expressing different α-SG mutants have been treated with the Compounds A, B, C, D, E, F, H, I, Q, R, S and T according to protocols developed in CF studies [Loo and Clarke 2011; Becq et al 2011, Pedemonte et al 2005; Wang et al 2006]. Concentration and time-dependent recovery of treated mutants have been evaluated by Western blotting. The proteasome inhibitor MG132, at the concentration of 10 μM, or DMSO at 1‰ concentration, have been used as positive and negative control, respectively.
In FIG. 1 the result obtained by treating cells expressing the R98H mutant of α-SG for 24 hours with Compound C 5 μM, Compound B 10 μM, Compound E 10 μM, Compound F 10 μM, Compound A 2 μM, Compound D 10 μM are shown. At the end of treatments, cells were lysed and total proteins resolved by SDS-PAGE. Western blotting has been performed by using α-SG specific antibody and β-actin specific antibody, used to normalize loaded proteins (in FIG. 1, upper panel, a representative experiment is shown). The expression of α-SG in different samples has been determined by densitometric analysis of the western blotting experiments and indicated as percentage of the protein present in cells expressing the R98H mutant treated with DMSO (negative control).
In FIG. 4 the result obtained by treating cells expressing the R98H mutant of α-SG for 24 hours with either Compound H 15 μM, Compound I 10 μM, Compound T 15 μM, Compound A 2 μM, or DMSO at 1‰ concentration, used as negative control, are shown. Cells expressing the wild type form of α-sarcoglycan have been used for comparison. At the end of treatments, cells were lysed and total proteins resolved by SDS-PAGE. Western blotting has been performed by using α-SG specific antibody and β-actin specific antibody, used to normalize loaded proteins (in upper panel of FIG. 4, a representative experiment is shown). The expression of α-SG in different samples has been determined by densitometric analysis of the western blotting experiments and indicated as percentage of the protein present in cells expressing the wild type form of α-sarcoglycan. […] The compounds tested induced the recovery of the R98H mutant to levels that in some cases were even greater than those present in HEK cells expressing the wild type protein.
(§1) In FIG. 5 the result obtained by treating cells expressing the R98H mutant of α-SG for 24 hours with either increasing concentration of Compound R (1, 2.5, 5 μM) or DMSO at 1‰ concentration, used as negative control, are shown. Cells expressing the wild type form of α-sarcoglycan have been used for comparison. At the end of treatments, cells were lysed and total proteins resolved by SDS-PAGE. Western blotting has been performed by using α-SG specific antibody and β-actin specific antibody, used to normalize loaded proteins (in upper panel of FIG. 5, a representative experiment is shown). The expression of α-SG in different samples has been determined by densitometric analysis of western blotting experiments and indicated as percentage of the protein present in cells expressing the wild type form of α-sarcoglycan.
as §1, with “6” for “5”, “Q (5, 10 μM), increasing concentration of Compound S (10, 15” for “R (1, 2.5, 5”, “1% o” for “1‰”, “6,” for “5,”

R164H mutant of SERCA1 = target: T2, R164H mutant of SERCA1 (Bos taurus, UniProt Q0VCY0, R164H); assay: Western blot rescue of R164H mutant of SERCA1 in HEK293 cells; format: cell-based, bovine; conditions: FIG. 3; HEK293, 24 hours; C 5 μM, B 10 μM, E 10 μM, F 10 μM, A 2 μM, D 10 μM; relative to wild type
T2 construct: expressed in transfected cells; host or cells: HEK 293
T2 sequence (Q0VCY0 whole entry R164H): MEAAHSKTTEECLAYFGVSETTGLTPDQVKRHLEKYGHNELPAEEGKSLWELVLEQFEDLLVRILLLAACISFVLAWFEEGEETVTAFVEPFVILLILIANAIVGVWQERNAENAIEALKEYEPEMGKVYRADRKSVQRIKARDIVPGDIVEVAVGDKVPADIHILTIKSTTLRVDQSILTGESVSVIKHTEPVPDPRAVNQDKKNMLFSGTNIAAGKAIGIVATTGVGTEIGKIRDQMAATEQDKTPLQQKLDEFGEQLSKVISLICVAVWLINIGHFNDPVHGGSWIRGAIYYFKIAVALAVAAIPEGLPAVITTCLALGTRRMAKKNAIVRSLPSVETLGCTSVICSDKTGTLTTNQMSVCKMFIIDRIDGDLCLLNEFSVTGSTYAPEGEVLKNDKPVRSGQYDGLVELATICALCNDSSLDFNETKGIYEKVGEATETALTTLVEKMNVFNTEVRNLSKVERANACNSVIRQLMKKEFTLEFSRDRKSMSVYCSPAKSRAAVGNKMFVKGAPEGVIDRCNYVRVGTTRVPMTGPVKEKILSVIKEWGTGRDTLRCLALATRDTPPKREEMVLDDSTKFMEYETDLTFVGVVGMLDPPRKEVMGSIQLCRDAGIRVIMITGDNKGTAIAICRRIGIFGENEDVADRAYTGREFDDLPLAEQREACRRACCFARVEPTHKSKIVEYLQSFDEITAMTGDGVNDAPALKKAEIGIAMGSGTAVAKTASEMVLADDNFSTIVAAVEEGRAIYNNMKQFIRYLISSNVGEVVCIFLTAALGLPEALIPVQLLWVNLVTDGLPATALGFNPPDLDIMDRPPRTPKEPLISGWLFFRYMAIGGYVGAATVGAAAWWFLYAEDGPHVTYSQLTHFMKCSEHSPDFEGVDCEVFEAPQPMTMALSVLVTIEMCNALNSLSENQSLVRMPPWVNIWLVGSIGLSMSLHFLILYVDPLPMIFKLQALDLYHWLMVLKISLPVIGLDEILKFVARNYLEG
Description: In FIG. 3 are reported the results obtained with HEK 293 cells expressing the R164H mutant of SERCA1 treated for 24 hours with either Compound C 5 μM, Compound B 10 μM, Compound E 10 μM, compound F 10 μM, Compound A 2 μM, compound D 10 μM, MG132 (proteasome inhibitor) 10 μM, used as positive control or the vehicle DMSO at 1‰ concentration, used as negative control. At the end of treatments, cells were lysed and total protein resolved by SDS-PAGE. Western blotting analysis has been performed by using SERCA1 specific antibody and β-actin specific antibody, to normalize loaded proteins. In the upper panel of FIG. 3 is reported a representative Western blotting experiment. The expression of SERCA1 in different samples has been determined by densitometric analysis and indicated as percentage of SERCA 1 content present in wild type expressing cells treated with DMSO.
In FIG. 10 is reported the content of SERCA1 protein present in HEK 293 cells transfected with the R164H mutant of SERCA1 and treated for 24 hours with either Compound H 15 μM, Compound I 10 μM, compound Q 10 μM, Compound R 5 μM, Compound S 15 μM, Compound T 15 μM or the vehicle DMSO at 1‰ concentration, used as negative control. Cells expressing the wild type form of SERCA1 have also been used for comparison. At the end of treatments, cells were lysed and total protein resolved by SDS-PAGE. Western blotting analysis has been performed by using SERCA1 specific antibody and β-actin specific antibody, to normalize loaded proteins. The expression of SERCA1 in different samples has been determined by densitometric analysis and indicated as percentage of SERCA 1 content present in wild type expressing cells. The graph of FIG. 10 reports the average values (+/− standard error) of at least three independent experiments.

[2] = target: T3, V247M mutant of alpha-sarcoglycan (Homo sapiens, UniProt Q16586, V247M); assay: Confocal immunofluorescence, membrane localization of V247M alpha-sarcoglycan in HEK293 cells; format: cell-based; conditions: FIG. 2; HEK293, 24 hours; E 10 μM, D 10 μM, MG132 positive control; not permeabilized cells
T3 construct: expressed in transfected cells; host or cells: HEK 293
T3 sequence (Q16586 24-387 V247M): T1 sequence (Q16586 24-387 R98H) with H75R, V224M
Description: The cellular localization of either the V247M or R98H mutants, upon corrector treatments, has been verified by confocal immunofluorescence.
In the experiment reported in FIG. 2, HEK 293 cells expressing the V247M mutant have been treated for 24 hours with either Compound E (10 μM) or Compound D (10 μM), MG132 (positive control) or DMSO at 1‰ concentration (negative control). At the end of treatments, not permeabilized cells were incubated with a monoclonal antibody specific for an extracellular epitope of α-sarcoglycan in order to mark only the membrane resident α-sarcoglycan. By comparison, cells expressing the wild type form of α-sarcoglycan have also been used.

| alpha-sarcoglycan protein level (western blot, densitometry), rescue of R98H mutant [1] | SERCA1 protein level (western blot, densitometry), rescue of R164H mutant (R164H mutant of SERCA1) | SMILES | cardiac arrhythmia developed as consequence of CASQ2 mutant degradation (D307H CASQ2 mutant) | partial rescue of the mutant CASQ2, increase over not treated mice (D307H CASQ2 mutant) [%] | plasma membrane localization of V247M alpha-sarcoglycan mutant [2] |
| --- | --- | --- | --- | --- | --- |
| promote the rescue | promote the rescue | COc1ccc(S(=O)(=O)N2CCN(C(C)c3nc(OC4CCCCC4)c4ccccc4n3)CC2)cc1 (stereo not shown) [Compound B, 4-Cyclohexyloxy-2-{1-[4-(4-methoxy-benzensulfonyl)-piperazin-1-yl]-ethyl}-quinazoline] | – | – | – |
| promote the rescue | promote the rescue | O=C(Nc1ncc(C(c2ccccc2Cl)N2CC[C@@H](O)C2)s1)C1(c2ccc3c(c2)OCO3)CC1 (stereo in doubt) [Compound D, 1-(benzo[d][1,3]dioxol-5-yl)-N-(5-((S)-(2-chlorophenyl) ((R)-3-hydroxypyrrolidin-1-yl)methyl)thiazol-2-yl)cyclopropanecarboxamide] | – | – | promoted the correct plasma membrane localization |

Continued, compound first:

| SMILES | alpha-sarcoglycan protein level (western blot, densitometry), rescue of R98H mutant [1] | SERCA1 protein level (western blot, densitometry), rescue of R164H mutant (R164H mutant of SERCA1) | cardiac arrhythmia developed as consequence of CASQ2 mutant degradation (D307H CASQ2 mutant) | partial rescue of the mutant CASQ2, increase over not treated mice (D307H CASQ2 mutant) [%] | plasma membrane localization of V247M alpha-sarcoglycan mutant [2] |
| --- | --- | --- | --- | --- | --- |
| CC(C)C[C@H](NC(=O)[C@H](Cc1ccccc1)NC(=O)c1cnccn1)B(O)O [Velcade, bortezomib] | – | – | can be counteracted | 20 | – |
| CC(c1nc(N2CCCCC2)c2ccccc2n1)N1CCN(S(=O)(=O)c2ccc(Cl)cc2)CC1 (stereo not shown) [Compound C, 2-{1-[4-(4-Chloro-benzensulfonyl)-piperazin-1-yl]ethyl}-4-piperidin-1-yl-quinazoline] | promote the rescue | promote the rescue | – | – | – |
| CC(C)C[C@@H](C=O)NC(=O)[C@H](CC(C)C)NC(=O)[C@H](CC(C)C)NC(=O)OCc1ccccc1 [MG132, reference compound] (Cbz-Leu-Leu-Leu-aldehyde) | – | – | – | – | promoted V247M membrane localization |
